Results on four molecules are retold here after patent publication US20240382400A1 (The Procter & Gamble Company, priority 2023, published 2024).

Like-named read-outs stand apart in the source and are kept apart here.

For series [1] the following is noted: acidic pKa; cited from earlier work.
The conditions of series [2]: pH 7.0 and 20° C.; cited from earlier work.
The conditions of series [3]: cited from earlier work.
The next series deals with PGE2. As to the kind of experiment: PGE2 anti-inflammation assay in-vitro. In kind it is cell-based. The note with it: compared to niacinamide.

One may read the pKa as the negative logarithm of the acid dissociation constant. As to `O=C([O-])C=Cc1ccccc1.[Na+]` [Sodium Cinnamate], in series [1], the pKa is reported as 4.32. For `O=C(O)C=Cc1ccccc1` [cinnamic acid], in series [1], the pKa is 4.32. As to `O=C(O)/C=C/c1ccc(O)cc1` [p-coumaric acid], the solubility in water entry in series [2] is given as “approximately 345 mg/mL”. For the same molecule, the conjugate base form entry is on record as “approximately 13.4%” in series [3] (pH 3) and “approximately 99.6%” in series [3] (pH 7). Methyl niacinamide: the “efficacy in PGE2 anti-inflammation assay” value in the series with PGE2 is given as “equivalent and/or improved efficacy to niacinamide”.
